The test system of data set [1] is TNFα-induced gene expression in Human Microvascular Endothelial Cells (HMEC). Kind of data set: Microarray study of TNFα-induced gene expression in HMEC. It counts as cell-based. On the procedure:
Effects of BDMC/Curcumin/Curcuminoids were Studied in TNFα-Induced Gene Expression in Human Microvascular Endothelial Cells (HMEC):
Micro array analysis was carried out to identify the sets of gene differentially expressed in TNFα treated endothelial cells pretreated/not pretreated with demethylated curcuminoids (BMDC, curcumin)/with curcuminoids. Data acquisition and image processing were performed using GCOS (Gene Chip Operating Software, Affymetrix). Genes that were >2.0 fold up regulated in TNFα-treated group compared to TNFα untreated control group were selected and subjected to hierarchical clustering. […] These sub-clusters were subjected to further functional analysis using DAVID (Database for Annotation, Visualization and Integrated Discovery NIAID, NIH) (FIG. 10, 11). Major known pathways (KEGG, Kyoto Encyclopedia of Genes and Genomes) identified in each of the cluster have been illustrated as pathway maps marking the candidate genes.
GeneChip™ screening of TNFα-inducible transcriptome of HMEC identified 1195 probe sets that were induced by a magnitude of two-fold or higher.

Data set [2] is described as follows: Particle size distribution study (Malvern particle size analyzer, laser diffraction). It counts as physicochemical. Conditions: nanoemulsified vs unformulated. On the procedure:
This study proves that a curcumin molecule which is originally 374 nm in the unformulated form is emulsified into 8-11 nm sized particles through a unique process, which has been indicated for this enhanced transport and efficacy of curcumin through the formulation. The study was conducted using Malvern particle size analyzer. The map of scattering intensity versus angle is the primary source of information used to calculate the particle size. The scattering of particles is accurately predicted by the Mie scattering model allowing accurate sizing across the widest possible dynamic range. During the laser diffraction measurement, particles are passed through a focused laser beam. These particles scatter light at an angle that is inversely proportional to their size. The angular intensity of the scattered light is then measured by a series of photosensitive detectors. The advantage of this study is that there is no sample preparation involved. […] Additional peaks can be observed which is contributed by the high molecular weight excipients used to prepare the formulation.

Data set [3] relates to phosphorylase kinase. Particulars: Reddy & Aggarwal, FEBS Lett 1994; cited from earlier work.
Data set [4] relates to psoriasis. Particulars: Heng et al., Br J Dermatol 2000; cited from earlier work.

Turning to `O=C(/C=C/c1ccc(O)c(O)c1)CC(=O)/C=C/c1ccc(O)c(O)c1` [bis-O-demethyl curcumin, Bis-O-Demethyl curcumin], in data set [1] (HMEC challenged with TNFα), the “effect on TNFα” value is recorded as “antagonizing effects on TNFα”. Moreover, the “number of TNFα inducible genes sensitive to the substance” value in data set [1] (microvascular endothelial cells challenged with TNFα, 1195 probe sets induced two-fold or higher) amounted to 1065 genes.

Consider `COc1cc(/C=C/C(=O)CC(=O)/C=C/c2ccc(O)c(OC)c2)ccc1O` [curcumin], for which the particle size is on record as 374 nm in data set [2] and 373 nm in data set [2] (listed as unformulated curcumin 98%). In data set [3], the phosphorylase kinase inhibition entry is recorded as “selective phosphorylase kinase inhibitor”. For the same compound, the resolution of psoriasis entry in data set [4] is on record as “leads to resolution of psoriasis”.

Values taken from US8535693B2, “Topical formulation(s) for the treatment of inflammation, skin and mucosal disorders and other diseases thereof” (Laila Pharmaceuticals Private Limited, priority 2008, dated 2013).
